{"source": "paper PMC11353420", "about": "“Anti-Inflammatory, Cytotoxic, and Genotoxic Effects of Soybean Oligopeptides Conjugated with Mannose” (Foods, 2024)", "key": {"[1]": {"system": "Salmonella typhimurium strain TA100", "assay": "Salmonella mutation assay (Ames test), TA100", "format": "cell-based", "settings": "positive mutagen", "experimental": "(§1) Overnight bacterial cultures were mixed with various doses of test compounds with (+S9) or without (−S9) and incubated at 37 °C for 20 min. The top agar was added and then poured onto a plate of minimal glucose agar. The plates were incubated at 37 °C for 48 h. The number of revertant colonies was counted and the mutagenic index (MI) was calculated. 2-aminoanthracene (2-AA) and 2-(2-furyl)-3-(5-nitro-2-furyl)-acrylamide (AF-2) were used as positive mutagens in the presence and absence of S9."}, "[2]": {"system": "Salmonella typhimurium strain TA98", "assay": "Salmonella mutation assay (Ames test), TA98", "format": "cell-based", "settings": "positive mutagen", "experimental": "as §1"}, "Drosophila melanogaster": {"system": "Drosophila melanogaster", "assay": "Somatic mutation and recombination test (SMART, wing spot test)", "format": "in vivo", "design": "key to Statistical diagnosis vs DI (negative control), Small Single (1–2 Cells) / Statistical diagnosis vs DI (negative control), Large Single (>2 Cells) / Statistical diagnosis vs DI (negative control), Twin / Statistical diagnosis vs DI (negative control), Total Spots: + = positive; − = negative; i = inconclusive", "settings": "20 mM, positive control", "experimental": "In brief, two strains of fruit flies, including mwh/mwh and ORR; flr^3/In(3LR) TM3, ri p^p sep l(3)89Aa bx^34e e Bd^S, were mated. […] After hatching, forty round wings were collected and analyzed for mutant spots (single, large, and twin spots). The statistical analysis for the wing spot test was performed as previously described. The Drosophila study was approved by the Institute of Nutrition—Mahidol University Institutional Animal Care and Use Committee (INMU-IACUC) (COA. No. INMU-IACUC 2023/01)."}, "[3]": {"system": "HepG2 (Human liver carcinoma cell line)", "assay": "SRB cytotoxicity assay, HepG2", "format": "cell-based", "source_text": "(§2) HEK293 (Human embryonic kidney cell line), HepG2 (Human liver carcinoma cell line), LX-2 (Human hepatic stellate cell line), and 3T3-L1 (Murine preadipocyte cell line) cells were obtained from the American Type Culture Collection (ATCC), Bethesda, MD, USA."}, "[4]": {"system": "HEK293 (Human embryonic kidney cell line)", "assay": "SRB cytotoxicity assay, HEK293", "format": "cell-based", "source_text": "as §2"}, "[5]": {"system": "LX-2 (Human hepatic stellate cell line)", "assay": "SRB cytotoxicity assay, LX-2", "format": "cell-based", "source_text": "as §2"}, "[6]": {"system": "RAW 264.7 murine macrophage cell line", "assay": "SRB cytotoxicity assay, RAW 264.7", "experimental": "The cells were maintained in a 5% CO2 humidified atmosphere (CO2 incubator, Thermo Scientific, Waltham, MA, USA) at 37 °C and sub-cultured every 3 days.\n(§3) The cytotoxicity of the oligopeptide and its conjugated forms on HepG2, HEK293, LX-2, and RAW 264.7 cells, pre- and mature 3T3-L1 adipocytes, and hPBMCs was analyzed by a sulforhodamine (SRB) assay to obtain their non-toxic concentration for further experiments and as screening data for their in vitro safety. The cells were plated for 12 h in 96-well plates and then treated with the oligopeptide and its conjugated sugar at a concentration of 0–1000 µg/mL for 48 h. Dimethyl sulfoxide (DMSO) was used as a vehicle control (the untreated control). At the indicated time, the cells were then fixed and subjected to an SRB assay. The absorbance was measured at 510 nm by spectrophotometry (Gen5, BioTek, Winooski, VT, USA), and the cell viability was calculated as the ratio of the treatment versus untreated control. The data are represented as the mean ± standard deviation of three replicates and are expressed relative to the untreated control. The percentage of cell survival was calculated as follows:% cell survival = (Abs_extract/Abs_control) × 100"}, "3T3-L1 Pre-adipocyte": {"system": "3T3-L1 Pre-adipocyte", "assay": "SRB cytotoxicity assay, 3T3-L1 pre-adipocyte", "format": "cell-based, murine", "source_text": "as §2"}, "3T3-L1 Mature-adipocytes": {"system": "3T3-L1 Mature-adipocytes", "assay": "SRB cytotoxicity assay, 3T3-L1 mature adipocytes", "format": "cell-based, murine", "experimental": "The pre-adipocyte 3T3-L1 cell line was differentiated to become mature adipocytes by culturing the cells to 100% confluence in 10% calf serum DMEM (CS medium), as Day 0 in a 96 well-plate. After post-confluence, the cells were incubated with the induction medium as a differentiation initiation medium (DMEM […] 1 μM DEX, 0.5 mM IBMX, 167 nM insulin, and 10% FBS) for 3 days (Days 1–3). After that, cells were cultured in a differentiation medium as an adipogenic differentiation medium (differentiation media: DMEM containing 167 nM insulin and 10% FBS) for 3 days (Days 4–6). Finally, maturation was induced in an induced-lipid accumulation medium (maturation media: DMEM containing 167 nM insulin and 10% FBS) for 6 days (Days 7–12). The mature adipocytes were then used for toxicity testing.\nas §3"}, "[7]": {"system": "NO production in LPS-treated RAW 264.7 macrophages", "assay": "LPS-induced nitric oxide (NO)/nitrite production, Griess reaction", "format": "cell-based, murine", "settings": "100, 200, 400 µg/mL pretreatment 1 h, LPS 1 µg/mL 24 h", "experimental": "To screen the anti-inflammation ability of the compounds, the nitrite level in the cultured medium of the treated cells was determined by the Griess reaction. RAW 264.7 macrophage cells were pretreated with various concentrations of the oligopeptide and its conjugated forms (100, 200, 400 µg/mL) for an hour and then incubated with LPS (1 µg/mL) for further 24 h at 37 °C in a 5% CO2 humidified atmosphere. The culture supernatant was collected for the Griess reagent assay as previous described. The NO production was calculated by comparison with LPS-treated controls."}, "iNOS": {"system": "iNOS", "assay": "iNOS protein level by immunoblotting in LPS-treated RAW 264.7", "format": "cell-based, murine", "settings": "100, 200, 400 µg/mL, LPS 1 µg/mL 24 h", "experimental": "(§4) RAW 264.7 macrophage cells were pretreated with various concentrations of the oligopeptide and its conjugated forms (100, 200, 400 µg/mL) for an hour and then incubated with LPS (1 µg/mL) for a further 24 h (at 37 °C in a 5% CO2 humidified atmosphere). The cells were then collected to investigate the iNOS and COX-2 protein levels. Cell lysate was prepared to obtain the protein samples. The samples were subjected to 10% sodium dodecyl sulfate polyacrylamide gel electrophoresis (SDS-PAGE). The separated proteins were electrically transferred to a nitrocellulose membrane. The target proteins were probed with specific antibodies, including anti-COX-2 antibody (Cell signaling, Danvers, MA, USA), anti-iNOS antibody (Merck, Rahway, NJ, USA), and anti-β-actin antibody (Sigma, St. Louis, MO, USA). Protein detection was performed using a chemiluminescence reagent (Bio-Rad Laboratories, Watford, UK)."}, "COX-2": {"system": "COX-2", "assay": "COX-2 protein level by immunoblotting in LPS-treated RAW 264.7", "format": "cell-based, murine", "settings": "100, 200, 400 µg/mL, LPS 1 µg/mL 24 h", "experimental": "as §4"}, "IL-6": {"system": "IL-6", "assay": "IL-6 secretion by ELISA in LPS-treated RAW 264.7", "format": "cell-based, murine", "settings": "100, 200, 400 µg/mL, LPS 1 µg/mL 24 h", "experimental": "(§5) RAW 264.7 macrophage cells were pretreated with various concentrations of the oligopeptide and its conjugated forms (100, 200, 400 µg/mL) for an hour and then incubated with LPS (1 µg/mL) for further 24 h at 37 °C in a 5% CO2 humidified atmosphere. Then, a sandwich Enzyme Link Immuno-Sorbent Assay was carried out in accordance with the manufacturer’s protocols (BioLegend ELISA MAXTM Deluxe Set, San Diego, CA, USA) to measure TNF-α or IL-6 protein levels in the condition medium."}, "TNF-α": {"system": "TNF-α", "assay": "TNF-α secretion by ELISA in LPS-treated RAW 264.7", "format": "cell-based, murine", "settings": "400 µg/mL, LPS-stimulated cells", "experimental": "as §5"}, "[8]": {"system": "human red blood cells (RBCs)", "assay": "Hemolysis assay", "format": "cell-based", "settings": "0.05%, positive control", "source_text": "As described by Karinchai et al., human peripheral blood mononuclear cells (PBMCs) and red blood cells (RBCs) were isolated from human blood samples [41]. Human blood samples of healthy subjects obtained from Maharaj Hospital, Chiang Mai, Thailand, were anonymized and kept in a heparinized tube by the laboratory. RBCs were collected and used to determined hemolysis induction by a hemolysis assay. Ficoll-Hypaque solution was used to isolate PBMCs, as described in the manufacturer’s instructions. A certificate of exemption by the Research Ethics Committee of the Faculty of Medicine, Chiang Mai University (No. EXEMPTION 8989/2022), was granted. Consent to participate was not applicable as all data were anonymized. All methods were carried out in accordance with relevant guidelines and regulations.\nThe hemolytic effect of the oligopeptide and its conjugated forms was determined by hemolysis assay. Briefly, the 5% RBCs suspension was mixed with various concentrations of the samples and further incubated at 37 °C for 3 h. The hemolysis induction by the compounds was measured as described previously. The hemolytic effect of each compound was interpreted using the following guidelines: 0–10% hemolysis is non-hemolysis, 10–25% hemolysis is slight hemolysis induction, and >25% hemolysis is high hemolysis induction."}}, "note": "Where “and” joins values, the source holds several entries; their conditions need not be identical. Equal entries are not always repeated.", "data": [{"compound": "Nc1ccc2cc3ccccc3cc2c1", "note": "[2-AA, 2-aminoanthracene]", "values": [{"measurement": "His^+ Revertant Colonies per Plate", "setting": "[1]; TA100, +S9, 0.5 µg per plate", "value": "599.7 ± 8.7"}, {"measurement": "His^+ Revertant Colonies per Plate", "setting": "[2]; TA98, +S9, 0.5 µg per plate", "value": "325.8 ± 16.2"}]}, {"compound": "CCOC(N)=O", "note": "[urethane]", "values": [{"measurement": "Statistical diagnosis vs DI (negative control), Large Single (>2 Cells)", "setting": "Drosophila melanogaster", "value": "+"}, {"measurement": "Statistical diagnosis vs DI (negative control), Small Single (1–2 Cells)", "setting": "Drosophila melanogaster", "value": "+"}, {"measurement": "Statistical diagnosis vs DI (negative control), Total Spots", "setting": "Drosophila melanogaster", "value": "+"}, {"measurement": "Statistical diagnosis vs DI (negative control), Twin", "setting": "Drosophila melanogaster", "value": "+"}, {"measurement": "total mutant spot, fold greater than the negative control", "setting": "Drosophila melanogaster", "value": 15, "unit": "fold"}, {"measurement": "Frequency of Mutant Spots per Individual (Number of Spots), Large Single (>2 Cells)", "setting": "Drosophila melanogaster; 40 wings", "value": "3.40 (136)"}, {"measurement": "Frequency of Mutant Spots per Individual (Number of Spots), Small Single (1–2 Cells)", "setting": "Drosophila melanogaster; 40 wings", "value": "6.10 (244)"}, {"measurement": "Frequency of Mutant Spots per Individual (Number of Spots), Total Spots", "setting": "Drosophila melanogaster; 40 wings", "value": "10.18 and 10.18 (407)"}, {"measurement": "Frequency of Mutant Spots per Individual (Number of Spots), Twin", "setting": "Drosophila melanogaster; 40 wings", "value": "0.68 (27)"}]}, {"compound": "O=C(CO)[C@H](O)[C@H](O)[C@H](O)CO", "note": "[AL, D-allulose]", "values": [{"measurement": "IC20", "setting": "[3]", "value": ">1000", "unit": "µg/mL"}, {"measurement": "IC50", "setting": "[3]; HepG2, 48 h, SRB", "value": ">1000", "unit": "µg/mL"}, {"measurement": "IC20", "setting": "[4]", "value": ">1000", "unit": "µg/mL"}, {"measurement": "IC50", "setting": "[4]; HEK293, 48 h, SRB", "value": ">1000", "unit": "µg/mL"}, {"measurement": "IC20", "setting": "[5]", "value": ">1000", "unit": "µg/mL"}, {"measurement": "IC50", "setting": "[5]; LX-2, 48 h, SRB", "value": ">1000", "unit": "µg/mL"}, {"measurement": "IC20", "setting": "[6]", "value": ">1000", "unit": "µg/mL"}, {"measurement": "IC50", "setting": "[6]; RAW 264.7, 48 h, SRB", "value": ">1000", "unit": "µg/mL"}, {"measurement": "IC20", "setting": "3T3-L1 Pre-adipocyte", "value": ">1000", "unit": "µg/mL"}, {"measurement": "IC50", "setting": "3T3-L1 Pre-adipocyte; 3T3-L1 Pre-adipocyte, 48 h, SRB", "value": ">1000", "unit": "µg/mL"}, {"measurement": "IC20", "setting": "3T3-L1 Mature-adipocytes", "value": ">1000", "unit": "µg/mL"}, {"measurement": "IC50", "setting": "3T3-L1 Mature-adipocytes; 3T3-L1 Mature-adipocytes, 48 h, SRB", "value": ">1000", "unit": "µg/mL"}, {"measurement": "inhibition of LPS-induced NO production", "setting": "[7]", "value": "did not inhibit"}, {"measurement": "effect on iNOS protein level", "setting": "iNOS", "value": "did not affect"}, {"measurement": "effect on COX-2 protein level", "setting": "COX-2", "value": "did not affect"}, {"measurement": "effect on level of IL-6", "setting": "IL-6", "value": "did not alter"}, {"measurement": "effect on TNF-α level", "setting": "TNF-α", "value": "significantly decreased"}]}, {"compound": "NC(=O)C(=Cc1ccc([N+](=O)[O-])o1)c1ccco1", "note": "[AF-2, 2-(2-furyl)-3-(5-nitro-2-furyl)-acrylamide]", "values": [{"measurement": "His^+ Revertant Colonies per Plate", "setting": "[1]; TA100, −S9, 0.01 µg per plate", "value": "527.3 ± 15.0"}, {"measurement": "His^+ Revertant Colonies per Plate", "setting": "[2]; TA98, −S9, 0.1 µg per plate", "value": "293.0 ± 10.3"}]}, {"compound": "triton x-100", "values": [{"measurement": "% Hemolysis (n = 5)", "setting": "[8]", "value": "100 ± 0.00", "unit": "%"}]}]}
